US5478845A, “Piperidine derivatives” (Novo Nordisk A/S, priority 1993, dated 1995)
pIC50: −log10 of the molar value. Counter-ions that a name gives are not always drawn.

Legend:
Design in all cases: species or system Male Wistar rats
5HT2-Receptor = target: T1, 5HT2-Receptor (Rattus norvegicus, UniProt P14842); assay: TEST 3: In Vitro Inhibition of 5HT2-Receptor Binding (3H-Ketanserine, rat frontal cortex); settings: 3H-Ketanserine (0.4 nM), rat frontal cortex membranes, 15 min. at 37° C.; read-out: TEST 3 IC50 (concentration inhibiting specific binding by 50%)
T1 construct: Male Wistar rats, 150-200 g are decapitated; Frontal cortex is removed quickly; from tissue; host or cells: rat frontal cortex membrane fragments
Description: TEST 3: In Vitro Inhibition of 5HT2 -Receptor Binding
(§1) Radioactive-labelled ligand ^3 H-Ketanserine is incubated with isolated cell membrane fragments at 37° C. for a given period of time. Following completed incubation, the incubate is filtered through GF/B filters, which are rinsed following filtration to remove unspecifically adhered radioactivity. As opposed to low-molecular compounds, membrane fragments are not rinsed through the filters, the radioactivity bound to the filters indicates the amount of ligand bound specifically as well as nonspecifically to the membranes.
The preparation is made in ice bath. Polytron kinematica is rinsed with milli-Q--H2 O before and after use. Male Wistar rats, 150-200 g are decapitated. Frontal cortex is removed quickly and weighed (approx. 200 mg). Frontal cortex is added to centrifuging vial containing 10 ml ice-cold D2 buffer. Homogenization applying polytron kinematica (homogenizer) setting 6 for 20 sec. The homogenizer is rinsed with 10 ml D2 buffer in another centrifuging vial. The 10 ml rinsing buffer is added to the tissue vial. Centrifuged at 18,000 rpm for 10 min. at 4° C. Final pellet is transferred to 125×vol. of same buffer. (Ex 200 mg in 25 ml D2 buffer). Can be stored for approx. 30 min. at 0° C.
25/μl ^3 H-Ketanserine (0.4 nM)
25/μl test substance/H2 O/blind cyproheptadine (2/μM)
Incubation for 15 min. at 37° C. […]

DOPAMINE D1 Receptor = target: T2, DOPAMINE D1 Receptor (Rattus norvegicus, UniProt P18901); assay: TEST 2: In Vitro Inhibition of DOPAMINE D1 Receptor Binding (3H-SCH 23390, rat striatum); settings: 3H-SCH 23390 (0.2 nM), rat striatum membranes, 60 min. at 30° C.; read-out: TEST 2 IC50 (concentration inhibiting specific binding by 50%)
T2 construct: Male Wistar rats, 150-200 g are decapitated; Striatum is removed quickly; from tissue; host or cells: rat striatum membrane fragments
Description: TEST 2: In Vitro Inhibition of DOPAMINE D1 Receptor Binding
Radioactive-labelled ligand ^3 H-SCH 23390 is incubated with isolated cell-membrane fragments in incubation buffer at 30° C. for a given period of time. Following completed incubation, the incubate is filtered through GF/B filters, which are rinsed following filtration to remove unspecifically adhered radioactivity. As opposed to low-molecular compounds, membrane fragments are not rinsed through the filters, the radioactivity bound to the filters indicates the amount of ligand bound specifically as well as nonspecifically to the membranes.
Male Wistar rats, 150-200 g are decapitated. Striatum is removed quickly, weighed (approx. 50 mg) and carefully homogenized in 100×vol. of buffer I applying glass/teflon homogenizer 10 up/down strokes. Ex.: 50 mg striatum is homogenized in […] buffer I. The homogenate is centrifuged at 18,000 rpm for 20 min. at 4° C., and the supernate is decanted. This step is performed three times, and each time the pellet is resuspended and homogenized in 100×vol. of buffer I. Following the third centrifugation, the pellet is suspended in 100×vol. of resuspension buffer and homogenized. The tissue is now ready for use. The tissue is stable at 0° C. for 8 hours.
200 μl test substance/H2 O/blind (cis-flupentixol 2 μM)
Incubation for 60 min. at 30° C.
10 ml of ice-cold 0.9% NaCl is added to the tubes. […]

DOPAMINE D2 Receptor = target: T3, DOPAMINE D2 Receptor (Rattus norvegicus, UniProt P61169); assay: TEST 1: In Vitro Inhibition of DOPAMINE D2 Receptor Binding (3H-Spiroperidol, rat striatum); settings: 3H-Spiroperidol (0.05 nM), rat striatum membranes, 20 min. at 37° C.; read-out: TEST 1 IC50 (concentration inhibiting specific binding by 50%)
T3 construct: Male Wistar rats, 150-200 g are decapitated, striatum is removed quickly and weighed; from tissue; host or cells: rat striatum membrane fragments
Description: TEST 1: In Vitro Inhibition of DOPAMINE D2 Receptor Binding
as §1, with “^3 H-Spiroperidol” for “^3 H-Ketanserine”, “isolated cell-membrane” for “isolated cell membrane”, “GF/B filters” for “GF/B filters,”, “filters is indicative of” for “filters indicates”
The procedure is performed in ice bath. Polytron kinematica is rinsed with milli-Q--H2 O before and after use. Male Wistar rats, 150-200 g are decapitated, striatum is removed quickly and weighed (approx. 50 mg). Striatum is transferred to a centrifuging vial containing 10 ml ice-cold D2 buffer. Homogenization is performed applying polytron kinematica (homogenizer) setting 6 for 20 sec. The homogenizer is rinsed with 10 ml D2 buffer in another centrifuging vial. The 10 ml rinsing buffer is added to the tissue vial. Centrifugation at 18,000 rpm for 10 min. at 4° C. Final pellet is transferred to 1,000×vol. of same buffer. (Ex. 50 mg striatum in 50 ml D2 buffer). Can be stored at 0° C. for at least 4 hours. Note that the tissue must be monogeneous (uniform) before use. If not, brief homogenization is performed. […]

T3 sequence (P61169 whole entry, the tested form may be a part): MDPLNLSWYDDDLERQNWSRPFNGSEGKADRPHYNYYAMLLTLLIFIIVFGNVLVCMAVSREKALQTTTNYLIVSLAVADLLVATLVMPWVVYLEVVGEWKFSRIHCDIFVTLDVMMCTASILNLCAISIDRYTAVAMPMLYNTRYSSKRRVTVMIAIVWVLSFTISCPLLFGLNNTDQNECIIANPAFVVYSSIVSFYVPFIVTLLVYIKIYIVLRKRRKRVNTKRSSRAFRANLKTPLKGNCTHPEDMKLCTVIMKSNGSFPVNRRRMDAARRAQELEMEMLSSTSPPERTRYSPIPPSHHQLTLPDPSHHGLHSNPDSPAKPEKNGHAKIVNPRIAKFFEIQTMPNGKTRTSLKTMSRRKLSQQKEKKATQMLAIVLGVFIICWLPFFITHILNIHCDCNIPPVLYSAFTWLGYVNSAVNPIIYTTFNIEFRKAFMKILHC
T2 sequence (P18901 whole entry, the tested form may be a part): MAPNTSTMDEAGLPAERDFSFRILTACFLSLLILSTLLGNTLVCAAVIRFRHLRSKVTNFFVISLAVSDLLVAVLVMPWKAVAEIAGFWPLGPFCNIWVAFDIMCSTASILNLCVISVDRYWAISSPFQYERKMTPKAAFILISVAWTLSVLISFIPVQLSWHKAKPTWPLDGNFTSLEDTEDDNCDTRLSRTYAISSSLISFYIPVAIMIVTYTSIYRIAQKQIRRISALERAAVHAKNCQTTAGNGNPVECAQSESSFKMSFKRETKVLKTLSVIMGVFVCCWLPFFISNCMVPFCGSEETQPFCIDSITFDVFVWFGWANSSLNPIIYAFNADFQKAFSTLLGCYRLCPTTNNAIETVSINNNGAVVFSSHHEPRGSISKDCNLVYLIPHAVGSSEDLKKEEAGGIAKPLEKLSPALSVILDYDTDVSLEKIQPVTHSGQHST
T1 sequence (P14842 whole entry, the tested form may be a part): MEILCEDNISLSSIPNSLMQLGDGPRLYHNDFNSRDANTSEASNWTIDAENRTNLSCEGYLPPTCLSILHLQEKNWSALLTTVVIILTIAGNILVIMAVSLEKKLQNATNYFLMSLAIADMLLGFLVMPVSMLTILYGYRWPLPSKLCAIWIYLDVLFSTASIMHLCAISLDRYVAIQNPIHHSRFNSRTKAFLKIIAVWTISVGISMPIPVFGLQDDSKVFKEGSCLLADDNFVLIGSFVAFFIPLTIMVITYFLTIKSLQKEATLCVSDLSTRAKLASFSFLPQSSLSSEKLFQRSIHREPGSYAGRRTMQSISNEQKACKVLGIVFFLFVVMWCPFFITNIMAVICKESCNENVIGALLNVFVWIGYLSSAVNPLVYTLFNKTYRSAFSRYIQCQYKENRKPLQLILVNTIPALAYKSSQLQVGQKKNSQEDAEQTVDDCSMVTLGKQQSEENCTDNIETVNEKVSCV

Structure (SMILES): CN(C(=O)OCCCN1CCC(c2noc3cc(F)ccc23)CC1)c1ccccc1 [Example 3, 4-(6-Fluoro-1,2-benzisoxazol-3-yl) -1-(3-(N-methyl-N-phenylcarbamoyloxy)propyl)piperidine, oxalate]
- pIC50 (5HT2-Receptor): 8.16
- pIC50 (DOPAMINE D1 Receptor): 7.37
- pIC50 (DOPAMINE D2 Receptor): 8.05

Structure (SMILES): CCN(C(=O)OCCCN1CCC(c2noc3cc(F)ccc23)CC1)c1ccc2c(c1)OCO2 [Example 2, 4-(6-Fluoro-1,2-benzisoxazol-3-yl)-1-(3-(N-ethyl-N-(3,4-methylenedioxyphenyl)carbamoyloxy)propylpiperidine, oxalate]
- pIC50 (5HT2-Receptor): 8.17
- pIC50 (DOPAMINE D1 Receptor): 7.52
- pIC50 (DOPAMINE D2 Receptor): 7.74
